In US10858312B1, “Gossypol isocyanate ester compounds with antileukemic activities and a method of preparing the same” (SHAANXI PANLONG PHARMACEUTICAL GROUP LIMITED BY SHARE LTD., priority 2020, dated 2020):

What was measured:
Type in all cases: cell-based
[1] = system: Jurkat (acute T-cell leukemia); experiment: CCK8 growth inhibition of leukemia cells, Jurkat; settings: for IC50: Homo sapiens, Jurkat, 48 h, read-out: IC50 Jurkat
Description: (§1) Example 6: CCK8 Method to Detect the Growth Inhibitory Effect of Gossypol Isocyanate Ester Compounds on Three Kinds of Leukemia Cells
(§2) Cell lines: Jurkat (acute T-cell leukemia), HL-60 (human promyelocytic leukemia cells), K-562 (chronic myeloid leukemia), provided by the Affiliated Hospital of Guangdong Medical College. The cells were cultured in RPMI1640 medium containing 10% fetal bovine serum, penicillin […], streptomycin 100 mg/L, 37° C., 5% CO2, saturated humidity incubator, and the logarithmic growth phase cells were tested.
(§3) Test method: The logarithmic growth phase leukemia cell lines were taken, counted, and inoculated on a 96-well culture plate at a density of 1×10^5/mL, 100 μL per well. After 24 hours of cultivation, 100 μL of double-concentration medium containing different concentrations of compounds was added to each well. The medium containing the highest concentration of DMSO was used as the solvent control. After 48 hours of drug action, 20 μL of CCK8 color developing solution was added to each well, and the color was developed at 37° C. The OD450 was measured with a microplate reader until the absorbance was about 1.5. The inhibition rate was calculated using the formula: Inhibition Rate (%)=(1−Absorbance Value of Administration Group/Absorbance Value of Control Group)×100%
(§4) The half-inhibitory concentration of cells (IC50) was calculated by the Kou's method.

[2] = system: HL-60 (human promyelocytic leukemia cells); experiment: CCK8 growth inhibition of leukemia cells, HL-60; settings: for IC50: Homo sapiens, HL-60, 48 h, read-out: IC50 HL-60
Description: as §1, §2, §3, §4

[3] = system: K-562 (chronic myeloid leukemia); experiment: CCK8 growth inhibition of leukemia cells, K-562; settings: for IC50: Homo sapiens, K562, 48 h, read-out: IC50 K562
Description: as §1, §2, §3, §4

| Structure (SMILES) | IC50 [1] | IC50 [2] | IC50 [3] | anti-leukemia activity (in words) ([1]; Jurkat cells, CCK8) | anti-leukemia activity (in words) ([2]; HL-60 cells, CCK8) | anti-leukemia activity (in words) ([3]; K562 cells, CCK8) |
| --- | --- | --- | --- | --- | --- | --- |
| Cc1cc2c(c(O)c1-c1c(C)cc3c(c1O)/C(=C/OC(=O)Nc1ccccc1)C(=O)C(O)=C3C(C)C)/C(=C/OC(=O)Nc1ccccc1)C(=O)C(O)=C2C(C)C [Compound 1, (1Z,1′Z)-(1,1′,6,6′-tetrahydroxy-5,5′-diisopropyl-3,3′-dimethyl-7,7′-dioxo-[2,2′-binaphthal-ene]-8,8′(7H,7′H)-diylidene)bis(methanylylidene) bis(phenylcarbamate)] | 18.3 µM | 31.7 µM | 37.1 µM | – | – | – |
| CCNC(=O)O/C=C1\C(=O)C(O)=C(C(C)C)c2cc(C)c(-c3c(C)cc4c(c3O)/C(=C/OC(=O)NCC)C(=O)C(O)=C4C(C)C)c(O)c21 [Compound 2, (1Z,1′Z)-(1,1′,6,6′-tetrahydroxy-5,5′-diisopropyl-3,3′-dimethyl-7,7′-dioxo-[2,2′-binaphtha-lene]-8,8′(7H,7′H)-diylidene)bis(methanylylidene) bis(ethylcarbamate)] | 68.2 µM | 92.2 µM | 49.1 µM | – | – | – |
| Cc1cc2c(c(O)c1-c1c(C)cc3c(c1O)/C(=C/OC(=O)Nc1ccc(N)cc1)C(=O)C(O)=C3C(C)C)/C(=C/OC(=O)Nc1ccc(N)cc1)C(=O)C(O)=C2C(C)C [Compound 3, ((8Z,8′Z)-1,1′,6,6′-tetrahydroxy-5,5′-diisopropyl-3,3′-dimethyl-7,7′-dioxo-[2,2′-binaphthalene]-8,8′(7H,7′H)-diylidene)bis(methaneylylidene) bis((4-aminophenyl)carbamate)] | 13 µM | 26.6 µM | 16.3 µM | active | active | active |
| Cc1cc2c(c(O)c1-c1c(C)cc3c(c1O)/C(=C/OC(=O)Nc1cccc4c(N)cccc14)C(=O)C(O)=C3C(C)C)/C(=C/OC(=O)Nc1cccc3c(N)cccc13)C(=O)C(O)=C2C(C)C [Compound 4, ((8Z,8′Z)-1,1′,6,6′-tetrahydroxy-5,5′-diisopropyl-3,3′-dimethyl-7,7′-dioxo-[2,2′-binaphthalene]-8,8′(7H,7′H)-diylidene)bis(methaneylylidene) bis((5-aminonaphthalen-1-yl)carbamate)] | 21.7 µM | 15.9 µM | 21.7 µM | – | – | – |
| Cc1cc(-c2ccc(NC(=O)O/C=C3\C(=O)C(O)=C(C(C)C)c4cc(C)c(-c5c(C)cc6c(c5O)/C(=C/OC(=O)Nc5ccc(-c7ccc(N)c(C)c7)cc5C)C(=O)C(O)=C6C(C)C)c(O)c43)c(C)c2)ccc1N [Compound 5, ((8Z,8′)-1,1′,6,6′-tetrahydroxy-5,5′-diisopropyl-3,3′-dimethyl-7,7′-dioxo-[2,2′-binaphthalene]-8,8′(7H,7′H)-diylidene)bis(methaneylylidene) bis((4′-amino-3,3′-dimethyl-[1,1′-biphenyl]-4-yl)carbamate)] | 32.6 µM | 28.4 µM | 48.8 µM | – | – | – |
